Experimental data from ChEMBL document CHEMBL1126970, “Development of 1,4-benzodiazepine cholecystokinin type B antagonists” (J Med Chem, 1993).

Assays:
[1] = Inhibition of binding of [125I]-CCK-8 to the cholecystokinin type B receptor
Cavia porcellus = species: Cavia porcellus; assay: Selectivity ratio between CCK-B and CCK-A receptor; design: reference not given here
[2] = Bioavailability in rat after 120 minutes at an oral dose of 2.5 mg/kg; format: ADME, organism-based; details: plasma
[3] = target: T1, Cholecystokinin receptor type A (Rattus norvegicus, UniProt P30551); assay: (§1) Inhibition of binding of [125I]CCK-8 to cholecystokinin type A receptor in rat pancreatic tissue
T1 sequence (P30551 whole entry): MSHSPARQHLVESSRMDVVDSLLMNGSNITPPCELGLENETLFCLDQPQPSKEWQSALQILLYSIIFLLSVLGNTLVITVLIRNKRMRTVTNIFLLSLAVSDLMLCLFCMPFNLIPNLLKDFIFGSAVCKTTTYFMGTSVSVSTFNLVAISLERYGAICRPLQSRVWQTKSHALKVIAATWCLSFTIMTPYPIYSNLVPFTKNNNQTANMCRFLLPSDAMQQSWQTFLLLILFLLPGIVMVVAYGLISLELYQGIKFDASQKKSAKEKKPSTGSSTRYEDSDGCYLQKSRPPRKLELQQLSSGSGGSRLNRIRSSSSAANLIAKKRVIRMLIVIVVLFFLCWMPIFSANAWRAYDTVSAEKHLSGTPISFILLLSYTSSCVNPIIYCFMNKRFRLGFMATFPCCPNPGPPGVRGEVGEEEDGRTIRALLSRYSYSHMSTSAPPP

[4] = Bioavailability in rat after 30 minutes at an oral dose of 2.5 mg/kg; format: ADME, organism-based; details: plasma
[5] = target: T2, Cholecystokinin receptor type A (Rattus norvegicus) (UniProt P30551); assay: as §1; design: concentration or dose not given beside the values; details: concentration not given here
T2 sequence (whole entry): T1 sequence (P30551 whole entry)

Mus musculus [6] = assay: Effective dose required to antagonise pentagastrin stimulated acid secretion in mouse when administered iv 60-80 min prior to pentagastrin; format: functional
Mus musculus [7] = assay: Effective dose required to antagonise pentagastrin stimulated acid secretion in mouse when administered orally 85-100 min prior to pentagastrin; format: functional; details: po
Mus musculus [8] = assay: Effective dose required to antagonise pentagastrin stimulated acid secretion in mouse when administered iv 5 min prior to pentagastrin; format: functional

Compound	Selectivity ratio (Cavia porcellus)	IC50 [3]	also measured
CCOC(=O)CN1C(=O)C(NC(=O)c2ccc(Cl)cc2)N=C(c2ccccc2F)c2ccccc21 (racemic)	0.06		IC50 [1]: 1900 nM
Cc1cccc(NC(=O)NC2N=C(c3cccnc3)c3ccccc3N(C)C2=O)c1 (racemic)	25	2300 nM	concentration at 2 h [2]: 191 ng/mL; concentration at 0.5 h [4]: 219 ng/mL
O=C(Nc1ccc(Cl)cc1)NC1N=C(c2ccccc2)c2ccccc2N(C[C@@H](O)CCl)C1=O (mixture of isomers)	> 500		inhibition [5]: > 15%
CCN(CC)C[C@H](O)CN1C(=O)C(NC(=O)Nc2ccc(Cl)cc2)N=C(c2ccccc2)c2ccccc21 (mixture of isomers)	> 7		inhibition [5]: > 14%
CN1C(=O)C(NC(=O)Nc2cccc(C(=O)O)c2)N=C(c2ccccc2)c2ccccc21 (racemic)	1.4	14 nM	
COc1ccc(NC(=O)NC2N=C(c3ccccc3)c3ccccc3N(C)C2=O)cn1 (stereo not given)	6.3	2900 nM	
CN1C(=O)[C@@H](NC(=O)c2ccc(C(F)(F)F)cc2)N=C(c2ccccc2)c2ccccc21	0.3	1300 nM	
O=C(Nc1ccc(Cl)cc1)NC1N=C(c2ccccc2)c2ccccc2N(C[C@@H](O)CN2CCCC2)C1=O (mixture of isomers)	> 10		inhibition [5]: > 16%
CN1C(=O)[C@H](NC(=O)Nc2cccc(N)c2)N=C(c2ccccc2)c2ccccc21	131	4330 nM	
O=C(Nc1ccc(Cl)cc1)NC1N=C(c2ccccc2)c2ccccc2N(C[C@@H](O)CO)C1=O (mixture of isomers)	> 30		inhibition [5]: > 9%
Cc1cccc(NC(=O)NC2N=C(c3ccccc3)c3ccccc3N(CC(=O)Nc3ccncc3)C2=O)c1 (racemic)	23	1100 nM	
Cc1cccc(NC(=O)NC2N=C(c3ccccc3)c3ccccc3N(CC(=O)N3CCN(C)CC3)C2=O)c1 (racemic)	217	760 nM	
Cc1cccc(NC(=O)NC2N=C(c3ccccc3)c3ccccc3N(CC(=O)O)C2=O)c1 (racemic)	0.02	7.6 nM	
CN1C(=O)C(NC(=O)Nc2ccc(Cl)cc2)N=C(c2ccccc2)c2ccccc21 (racemic)	15	1200 nM	
CCOC(=O)CCN1C(=O)C(NC(=O)Nc2cccc(OC)c2)N=C(c2ccccc2)c2ccccc21 (racemic)	340	340 nM	
CC(=O)Oc1cccc(NC(=O)N[C@@H]2N=C(c3ccccc3)c3ccccc3N(C)C2=O)c1	13	6600 nM	
CN1C(=O)[C@H](NC(=O)Nc2cccc(O)c2)N=C(c2ccccc2)c2ccccc21	1	60 nM	
Cc1ccc(NC(=O)NC2N=C(c3ccccc3)c3ccccc3N(CC(=O)Nc3ccncc3)C2=O)cc1 (racemic)	21	4000 nM	
CCOC(=O)CN1C(=O)C(NC(=O)Nc2ccc(Cl)cc2)N=C(c2ccccc2F)c2ccccc21 (racemic)	183		IC50 [1]: 1.2 nM; ED50 (Mus musculus [6]): > 2 mg/kg; ED50 (Mus musculus [7]): 6 mg/kg; ED50 (Mus musculus [8]): 0.7 mg/kg
COc1cccc(NC(=O)NC2N=C(c3ccccc3)c3ccccc3N(CCC(=O)O)C2=O)c1 (racemic)	0.036	9 nM	
COc1cccc(NC(=O)NC2N=C(c3ccccc3)c3ccccc3N(CC(=O)N3CCN(C)CC3)C2=O)c1 (racemic)	318	1400 nM	
Cc1cccc(NC(=O)NC2N=C(c3ccccc3)c3ccccc3N(CCN(C)C)C2=O)c1 (racemic)	73	1890 nM	concentration at 0.5 h [4]: 75 ng/mL
CN1C(=O)C(NC(=O)Nc2ccc(C(F)(F)F)cc2)N=C(c2ccccc2)c2ccccc21 (stereo not given)	228	1300 nM	
COc1cccc(NC(=O)NC2N=C(c3ccccc3)c3ccccc3N(CC(=O)N3CCCC3)C2=O)c1 (racemic)	708	170 nM	
CCOC(=O)CN1C(=O)C(NC(=O)N[C@@H](C)c2ccccc2)N=C(c2ccccc2)c2ccccc21 (mixture of isomers)	< 48	4800 nM	

Compound	Selectivity ratio (Cavia porcellus)	IC50 [3]	also measured
Cc1cc(C)cc(NC(=O)NC2N=C(c3ccccc3)c3ccccc3N(C)C2=O)c1 (stereo not given)	2.7	720 nM	
C[C@H](NC(=O)NC1N=C(c2ccccc2)c2ccccc2N(C)C1=O)c1ccccc1 (mixture of isomers)	0.04	430 nM	
C=Cc1cccc(NC(=O)N[C@@H]2N=C(c3ccccc3)c3ccccc3N(C)C2=O)c1	48	1670 nM	
CN1C(=O)C(NC(=O)Nc2cccc(C(F)(F)F)c2)N=C(c2ccccc2)c2ccccc21 (stereo not given)	195	740 nM	concentration at 2 h [2]: 102 ng/mL; concentration at 0.5 h [4]: 120 ng/mL
Cc1cccc(NC(=O)N[C@@H]2N=C(c3ccccc3)c3ccccc3NC2=O)c1	95	3800 nM	
Cc1cccc(NC(=O)NC2N=C(c3ccccc3)c3ccccc3N(CCO)C2=O)c1 (racemic)	6	270 nM	concentration at 2 h [2]: 95 ng/mL; concentration at 0.5 h [4]: 156 ng/mL
COc1cccc(NC(=O)NC2N=C(c3ccccc3)c3ccccc3N(CC[N+](C)(C)C)C2=O)c1 (racemic)	15	17000 nM	
CN1C(=O)C(NC(=O)Nc2ccc3ncccc3c2)N=C(c2ccccc2)c2ccccc21 (racemic)	6	310 nM	
CN1C(=O)C(NC(=O)Nc2cccc(CC(=O)O)c2)N=C(c2ccccc2)c2ccccc21 (stereo not given)	12	61 nM	
CN1C(=O)C(NC(=O)Nc2ccc(Cl)nc2)N=C(c2ccccc2)c2ccccc21 (stereo not given)	> 65		inhibition [5]: 23%
Cc1cccc(NC(=O)NC2N=C(c3ccncc3)c3ccccc3N(C)C2=O)c1 (racemic)	7.5	390 nM	
CCN(CC)C(=O)CN1C(=O)C(NC(=O)Nc2cccc(C)c2)N=C(c2ccccn2)c2ccccc21 (racemic)	776	435 nM	
CCN(CC)CC(=O)OCCN1C(=O)C(NC(=O)Nc2cccc(C)c2)N=C(c2ccccc2)c2ccccc21 (racemic)	34	190 nM	
Cc1cccc(NC(=O)NC2N=C(c3ccccc3)c3ccccc3N(Cc3n[nH]c(C)n3)C2=O)c1 (racemic)	58	566 nM	
CN1C(=O)[C@H](NC(=O)Nc2ccccc2Cl)N=C(c2ccccc2)c2ccccc21	6.7	410 nM	
CN1C(=O)C(NC(=O)Nc2ccc3c(c2)OCO3)N=C(c2ccccc2)c2ccccc21 (stereo not given)	> 100		inhibition [5]: > 3%
CN1C(=O)[C@H](NC(=O)Nc2cccc(CN)c2)N=C(c2ccccc2)c2ccccc21	0.22	160 nM	
Cc1cccc(NC(=O)NC2N=C(c3ccccn3)c3ccccc3N(C)C2=O)c1 (stereo not given)	1	65 nM	
CN1C(=O)C(NC(=O)Nc2cccc(C#N)c2)N=C(c2ccccc2)c2ccccc21 (stereo not given)	115	3100 nM	
COC(=O)c1cccc(NC(=O)N[C@@H]2N=C(c3ccccc3)c3ccccc3N(C)C2=O)c1	150	1200 nM	
Cc1cccc(NC(=O)NC2N=C(c3ccccc3)c3cccnc3N(C)C2=O)c1 (racemic)	< 0.01	104 nM	
CN1C(=O)[C@H](NC(=O)Nc2cccc(I)c2)N=C(c2ccccc2)c2ccccc21	116	800 nM	
Cc1cccc(NC(=O)N[C@@H]2N=C(c3ccccc3)c3ccccc3N(C)C2=O)c1 [L-365260]			concentration at 2 h [2]: 194 ng/mL; concentration at 0.5 h [4]: 172 ng/mL
C#Cc1cccc(NC(=O)NC2N=C(c3ccccc3)c3ccccc3N(C)C2=O)c1 (stereo not given)	18	402 nM	
CN1C(=O)[C@H](NC(=O)NCc2cccc(O)c2)N=C(c2ccccc2)c2ccccc21	1	21 nM	
